In patent publication US4072757A, “N^2 alkoxynaphthylsulfonyl-L-argininamides and the pharmaceutically acceptable salts thereof” (Mitsubishi Chemical Industries Limited, priority 1974, dated 1978):

Biological target: T1, thrombin (Bos taurus, UniProt P00735)
T1 construct: clotting of bovine fibrinogen
Assay: fibrinogen coagulation time
Assay type: biochemical
Settings: bovine fibrinogen, thrombin 5 units/ml, borate saline buffer pH 7.4, 25° C; normal coagulation time 50-55 seconds to 100-110 seconds; read-out: Concentration required to prolong the coagulation time by a factor of two
Procedure: The measurement of the fibrinogen coagulation time was conducted as follows:
Immediately after mixing, the reaction mixture was transferred from the ice bath to a bath maintained at 25° C. Coagulation times were taken as the period between the time of transference to the 25° C bath and the time of the first appearance of fibrin threads.
The term "concentration required to prolong the coagulation time by a factor of two" is the concentration of an active ingredient required to prolong the normal coagulation time 50-55 seconds to 100-110 seconds.

Row | Compound | IC (2-fold clotting time)
1 | COc1ccc2cc(S(=O)(=O)N[C@@H](CCCNC(=N)N)C(=O)N3CCCCC3C(=O)O)ccc2c1 (stereo partly drawn) [Sample 4, 1-[N^2-(6-methoxy-2-naphthylsulfonyl)-L-arginyl]-2-piperidinecarboxylic acid] | 3 µM
2 | COc1cc2ccc(S(=O)(=O)N[C@@H](CCCNC(=N)N)C(=O)N3CCC(C)CC3C(=O)O)cc2cc1OC (stereo partly drawn) [Sample 5, 1-[N^2-(6,7-dimethoxy-2-naphthylsulfonyl)-L-arginyl]-4-methyl-2-piperidinecarboxylic acid] | 0.4 µM
3 | COc1ccc2ccc(S(=O)(=O)N[C@@H](CCCNC(=N)N)C(=O)N3CCC(C)CC3C(=O)O)cc2c1 (stereo partly drawn) [Sample 7, 1-[N^2-(7-methoxy-2-naphthylsulfonyl)-L-arginyl]-4-methyl-2-piperidinecarboxylicacid] | 0.15 µM
4 | COc1ccc2cc(S(=O)(=O)N[C@@H](CCCNC(=N)N)C(=O)N3CCC(C)CC3C(=O)O)cc(OC)c2c1 (stereo partly drawn) [Sample 11, 1-[N^2-(4,6-dimethoxy-2-naphthylsulfonyl)-L-arginyl]-4-methyl-2-piperidinecarboxylic acid] | 0.35 µM
5 | CCCC1CCN(C(=O)[C@H](CCCNC(=N)N)NS(=O)(=O)c2ccc3cc(OC)c(OC)cc3c2)C(C(=O)O)C1 (stereo partly drawn) [Sample 19, 1-[N^2-(6,7-dimethoxy-2-naphthylsulfonyl)-L-arginyl]-4-propyl-2-piperidinecarboxylic acid] | 0.5 µM
6 | COc1cc2ccc(S(=O)(=O)N[C@@H](CCCNC(=N)N)C(=O)N3CCC(c4ccccc4)CC3C(=O)O)cc2cc1OC (stereo partly drawn) [Sample 30, 1-[N^2-(6,7-dimethoxy-2-naphthylsulfonyl)-L-arginyl]-4-phenyl-2-piperidinecarboxylic acid] | 12 µM

Tested on: not listed separately
Assay: acute toxicity (LD50) by intraperitoneal administration in mice
Settings: mouse, in vivo, ip, mice (male, 20 g)
Procedure: On the other hand, LD50 values for N^2 -dansyl-N-butyl-L-argininamide and N^2 -dansyl-N-methyl-N-butyl-L-argininamide are 75 and 70 milligrams per kilogram, respectively. The therapeutic agents of this invention may be administered to mammals including humans, alone or in combination with pharmaceutically acceptable carriers, the proportion of which is determined by the solubility and chemical nature of the compound, chosen route of administration and standard pharmaceutical practice. For example, the compounds may be injected parenterally, that is, intramuscularly, intravenously or subcutaneously. For parenteral administration, the compounds may be used in the form of sterile solutions containing other solutes, for example, sufficient saline or glucose to make the solution isotonic. The compounds may be administered orally in the form of tablets, capsules, or granules containing suitable excipients such as starch, lactose, white sugar and the like. The compounds may be administered sublingually in the form of troches or lozenges in which each active ingredient is mixed with sugar or corn syrups, flavoring agents and dyes, and then dehydrated sufficiently to make the mixture suitable for pressing into solid form. The compounds may be administered orally in the form of solutions which may contain coloring and flavoring agents.

Row | Compound | LD50
7 | COc1cc2ccc(S(=O)(=O)N[C@@H](CCCNC(=N)N)C(=O)N3CCCCC3C(=O)O)cc2cc1OC (stereo partly drawn) [Sample 2, 1-[N^2-(6,7-dimethoxy-2-naphthylsulfonyl)-L-arginyl]-2-piperidinecarboxylic acid] | 1500 mg/kg
8 | CCOC(=O)C1CC(C)CCN1C(=O)[C@H](CCCNC(=N)N)NS(=O)(=O)c1ccc2ccc(OC)cc2c1 (stereo partly drawn) [Sample 6, Ethyl 1-[N^2-(7-methoxy-2-naphthylsulfonyl)-L-arginyl]-4-methyl-2-piperidinecarboxylate] | 670 to 1000 mg/kg
9 | COc1ccc2cc(S(=O)(=O)N[C@@H](CCCNC(=N)N)C(=O)N3CCC(C)CC3C(=O)O)cc(OC)c2c1 (stereo partly drawn) [Sample 11, 1-[N^2-(4,6-dimethoxy-2-naphthylsulfonyl)-L-arginyl]-4-methyl-2-piperidinecarboxylic acid] | 670 to 1000 mg/kg
